Source: EP4471048A1, “PEPTIDE INHIBITORS OF INTERLEUKIN-23 RECEPTOR” (Zealand Pharma A/S, priority 2023, dated 2024)

Columns and labels:
human IL-23R = biological target: T1, human IL-23R (Homo sapiens, UniProt Q5VWK5); assay: biochemical; settings: for Emax: read-out: % displacement (hIL-23R NIuc)
T1 sequence (Q5VWK5 22-629): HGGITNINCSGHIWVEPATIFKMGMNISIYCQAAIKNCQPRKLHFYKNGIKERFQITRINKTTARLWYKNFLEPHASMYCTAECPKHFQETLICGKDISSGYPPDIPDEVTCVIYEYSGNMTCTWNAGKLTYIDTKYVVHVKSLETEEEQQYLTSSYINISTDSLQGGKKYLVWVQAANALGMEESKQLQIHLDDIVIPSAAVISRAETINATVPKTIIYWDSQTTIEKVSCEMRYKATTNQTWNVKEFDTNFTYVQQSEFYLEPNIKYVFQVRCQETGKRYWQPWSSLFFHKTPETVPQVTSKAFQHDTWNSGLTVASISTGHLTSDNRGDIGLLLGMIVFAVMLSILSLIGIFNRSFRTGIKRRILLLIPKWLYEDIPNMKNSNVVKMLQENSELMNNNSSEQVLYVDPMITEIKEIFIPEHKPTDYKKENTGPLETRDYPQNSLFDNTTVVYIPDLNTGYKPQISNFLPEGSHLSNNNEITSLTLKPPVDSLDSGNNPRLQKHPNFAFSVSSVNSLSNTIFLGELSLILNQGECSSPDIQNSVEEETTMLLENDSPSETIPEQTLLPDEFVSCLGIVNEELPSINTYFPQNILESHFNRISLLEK
How it was run: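 Membranes from HEK293 cells stably expressing Nluc-tagged human IL-23R were incubated 2 h at room temperature with test compound and a fluorophore-labelled tracer. After substrate addition, loss of BRET (TAMRA over luciferase emission) reported tracer displacement. A 4PL fit gave IC50 values.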

[1] = Peptide stability in simulated intestinal fluid (SIF); type: in vitro ADME; settings: 37 °C, porcine pancreatin; for SIF (% remaining 4 h): 10 µM; for SIF (% remaining 4 h) / remaining at 4 h, 10 µM: pH 6.8, 4 h; for remaining at 1 h, 10 µM / remaining at 4 h, 10 µM: pig; for remaining at 1 h, 10 µM: pH 6.8, 1 h
Protocol: (§1) SGF was prepared by dissolving sodium chloride (0.2 g) in 50 mL of water. A volume of 0.7 mL of 10 M HCl was added to adjust the pH of the solution to 1.2 and the volume made up to 100 mL with water. […] SIF was prepared by dissolving monobasic potassium phosphate (0.68 g) in 50 mL of water and adjusting the pH to 6.8 with 1 M NaOH. The volume was subsequently made up to 100 mL with water. 200 mg porcine pancreatin (P1625, Sigma Aldrich) was gently dissolved into 20 mL preheated (37 °C) solution (10 g/L) immediately prior to the incubation.
(§2) The incubation was performed at 37 °C with gentle shaking. […] After the last timepoint, the sampling plate was mixed for 10 min on a shaking table and centrifuged 10 min at 2200 g. 70 µL resulting supernatant was diluted with 150 µL water, mixed and centrifugated before analysis by liquid chromatography high resolution mass spectrometry. […] Percent remaining at each timepoint was calculated relative to timepoint zero based on absolute peak areas.
Compounds with a SIF stability (after 4 h) above 70% are considered highly SIF stable.

[2] = Peptide stability in simulated gastric fluid (SGF); type: in vitro ADME; settings: pig, simulated gastric fluid (SGF) with porcine pepsin (3.2 g/L), pH 1.2, 10 µM, 37 °C, porcine pepsin; for remaining at 1 h, 10 µM: pH 1.2, 1 h, read-out: SGF (% remaining 1 h); for remaining at 4 h, 10 µM: pH 1.2, 4 h, read-out: SGF (% remaining 4 h)
Protocol: as §1, §2
Compounds with a SGF stability (after 4 h) above 70% are considered highly SGF stable. […] Table 3-4: SGF data

[3] = SAR tables, % peptide remaining, read-out: SIF (% after 4 h)
[4] = read-out: SIF (% remaining 4 h)

| Compound | % displacement (hIL-23R NIuc) (human IL-23R) | IC50 (human IL-23R) | SIF (% remaining 4 h) [1] | remaining at 1 h, 10 µM [1] | remaining at 4 h, 10 µM [1, 3] | remaining at 1 h, 10 µM [2] | remaining at 4 h, 10 µM [2] | Emax (human IL-23R) | remaining at 4 h, 10 µM [1, 4] |
| --- | --- | --- | --- | --- | --- | --- | --- | --- | --- |
| CC[C@H](C)[C@@H]1NC(=O)[C@@H]2CCCCNC(=O)CC[C@@H](C(=O)N[C@@H](Cc3cnc4ccccc4c3)C(=O)N[C@@H](Cc3cccnc3)C(=O)NC)NC(=O)[C@](C)(CC(C)C)NC(=O)[C@H](Cc3ccc4ccccc4c3)NC(=O)[C@H](Cc3ccc(OCCN)cc3)NC(=O)[C@H](CCC(=O)N2)NC(=O)[C@H](CCC(N)=O)NC(=O)[C@H](Cc2c[nH]c3ccccc23)NC(=O)[C@H](C(C)C)NC1=O [Compound 71, K(1c)(6c)^†IVWQE(6c)[Y(2-aminoethoxy)][2-Nal][2-Me-Leu]E(1c)[3-(3-Quinolinyl)-Ala][3-(3-Pyridyl)-Ala]-[NHMe]] | 100% | 84 pM | 6% | 55% | 6% | 100% | 100% | – | – |
| CC[C@H](C)[C@@H]1NC(=O)[C@@H]2CCCCNC(=O)CC[C@@H](C(=O)NCC(=O)N[C@H](Cc3cccnc3)C(N)=O)NC(=O)[C@](C)(C(C)C)NC(=O)[C@H](Cc3ccc4ccccc4c3)NC(=O)[C@H](Cc3ccc(C)cc3)NC(=O)[C@H](CCC(=O)N2)NC(=O)[C@H](CCC(N)=O)NC(=O)[C@H](Cc2c[nH]c3ccccc23)NC(=O)[C@H](C(C)C)NC1=O [Compound 19, K(1c)(6c)^†IVWQE(6c)[F(4-Me)][2-Nal][2-Me-Val]E(1c)G[{d}3-(3-Pyridyl)-Ala]-[NH2]] | – | 37000 pM | – | 90% | – | 78% | 6% | 103% | 27% |
| CC[C@H](C)[C@@H]1NC(=O)[C@@H]2CCCCNC(=O)CC[C@@H](C(=O)NC3(C(=O)N[C@@H](Cc4cccnc4)C(=O)NC)CCNCC3)NC(=O)[C@](C)(CC(C)C)NC(=O)[C@H](Cc3ccc4ccccc4c3)NC(=O)[C@H](Cc3ccc(OCCN)cc3)NC(=O)[C@H](CCC(=O)N2)NC(=O)[C@H](CCC(N)=O)NC(=O)[C@H](Cc2c[nH]c3ccccc23)NC(=O)[C@H](C(C)C)NC1=O [Compound 62, K(1c)(6c)^†IVWQE(6c)[Y(2-aminoethoxy)][2-Nal][2-Me-Leu]E(1c)[4-Aminopiperidin-4-carbonyl][3-(3-Pyridyl)-Ala]-[NHMe]] | – | 72 pM | – | 111% | – | 105% | 108% | 99% | 87% |
| CC[C@H](C)[C@@H]1NC(=O)[C@@H]2CCCCNC(=O)CC[C@@H](C(=O)N3CCNC3C(=O)N[C@@H](Cc3cccnc3)C(=O)NC)NC(=O)[C@](C)(CC(C)C)NC(=O)[C@H](Cc3ccc4ccccc4c3)NC(=O)[C@H](Cc3ccc(OCCN)cc3)NC(=O)[C@H](CCC(=O)N2)NC(=O)[C@H](CCC(N)=O)NC(=O)[C@H](Cc2c[nH]c3ccccc23)NC(=O)[C@H](C(C)C)NC1=O (stereo partly drawn) [Compound 72, K(1c)(6c)^†IVWQE(6c)[Y(2-aminoethoxy)][2-Nal][2-Me-Leu]E(1c)[(R,S)-Imidazolidin-2-carbonyl][3-(3-Pyridyl)-Ala]-[NHMe]] | – | 99000 pM | 110% | 102% | 110% | 94% | 107% | 97% | – |
| CNC(=O)[C@H](Cc1cccnc1)NC(=O)[C@H](Cc1cnc[nH]1)NC(=O)[C@@H]1CCC(=O)NCCCC[C@@H]2NC(=O)CC[C@H](NC(=O)[C@H](CCC(N)=O)NC(=O)[C@H](Cc3c[nH]c4ccccc34)NC(=O)CCNC2=O)C(=O)N[C@@H](Cc2ccc(OCCN)cc2)C(=O)N[C@@H](Cc2ccc3ccccc3c2)C(=O)N[C@@](C)(CC(C)C)C(=O)N1 [Compound 86, K(1c)(6c)^†[3-Aminopropanoyl]WQE(6c)[Y(2-aminoethoxy)][2-Nal][2-Me-Leu]E(1c)H[3-(3-Pyridyl)-Ala]-[NHMe]] | 101% | 49 pM | – | 77% | – | 94% | 111% | – | 36% |
| CC[C@H](C)[C@@H]1NC(=O)[C@@H]2CCCCNC(=O)CC[C@@H](C(=O)N[C@H](Cc3cnc[nH]3)C(=O)N[C@@H](Cc3cccnc3)C(=O)NC)NC(=O)[C@](C)(CC(C)C)NC(=O)[C@H](Cc3ccc4ccccc4c3)NC(=O)[C@H](Cc3ccc(OCCN)cc3)NC(=O)[C@H](CCC(=O)N2)NC(=O)[C@H](CCC(N)=O)NC(=O)[C@H](Cc2c[nH]c3ccccc23)NC(=O)[C@H](C(C)C)NC1=O [Compound 70, K(1c)(6c)^†IVWQE(6c)[Y(2-aminoethoxy)][2-Nal][2-Me-Leu]E(1c)[{d}H][3-(3-Pyridyl)-Ala]-[NHMe]] | – | 410 pM | – | 101% | 72% | 102% | 95% | 101% | – |
| CC[C@H](C)[C@@H]1NC(=O)[C@@H]2CCCCNC(=O)CC[C@@H](C(=O)NCCCCC(=O)N[C@@H](Cc3cccnc3)C(=O)NC)NC(=O)[C@](C)(CC(C)C)NC(=O)[C@H](Cc3ccc4ccccc4c3)NC(=O)[C@H](Cc3ccc(OCCN)cc3)NC(=O)[C@H](CCC(=O)N2)NC(=O)[C@H](CCC(N)=O)NC(=O)[C@H](Cc2c[nH]c3ccccc23)NC(=O)[C@H](C(C)C)NC1=O [Compound 64, K(1c)(6c)^†IVWQE(6c)[Y(2-aminoethoxy)][2-Nal][2-Me-Leu]E(1c)[5-Aminopentanoyl][3-(3-Pyridyl)-Ala]-[NHMe]] | – | 11000 pM | 86% | 93% | 86% | 102% | 90% | 99% | – |
| CNC(=O)[C@H](Cc1cccnc1)NC(=O)[C@H](CCN)NC(=O)[C@@H]1CCC(=O)NCCCC[C@@H]2NC(=O)CC[C@H](NC(=O)[C@H](CCC(N)=O)NC(=O)[C@H](Cc3c[nH]c4ccccc34)NC(=O)CCNC2=O)C(=O)N[C@@H](Cc2ccccn2)C(=O)N[C@@H](Cc2ccc3ccccc3c2)C(=O)N[C@@](C)(CC(C)C)C(=O)N1 [Compound 84, K(1c)(6c)^†[3-Aminopropanoyl]WQE(6c)[3-(2-Pyridyl)-Ala][2-Nal][2-Me-Leu]E(1c)[Dab][3-(3-Pyridyl)-Ala]-[NHMe]] | – | 110 pM | – | 92% | – | 107% | 103% | 97% | 82% |
